Data published in US8173635B2, “Kinase inhibitors” (Vertex Pharmaceuticals Incorporated, priority 2007, dated 2012).

Legend:
Type in all cases: biochemical
[1] = molecular target: PKC delta kinase (Homo sapiens, UniProt Q05655); test: PKC delta kinase inhibition, coupled-enzyme NADH absorbance assay (Ki); conditions: 150 μM ATP, 46 nM PKC delta, 30° C.; read-out: Ki PKC delta
How it was run: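 Assay buffer was 100 mM HEPES pH 7.5, 10 mM MgCl2, 25 mM NaCl, 0.1 mM EDTA, 0.01% Brij. Enzyme buffer was equilibrated with compound in DMSO for 10 min at 30 °C. Ki values were derived by non-linear regression of initial rate data.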

[2] = molecular target: PKC alpha kinase (Homo sapiens, UniProt P17252); test: PKC alpha kinase inhibition, coupled-enzyme NADH absorbance assay (Ki); conditions: 130 μM ATP, 4.5 nM PKC alpha, 30° C.; read-out: Ki PKC alpha
[3] = molecular target: PKC theta kinase (Homo sapiens, UniProt Q04759); test: PKC theta kinase inhibition, coupled-enzyme NADH absorbance assay (Ki); conditions: 240 μM ATP, 18 nM PKC theta, 30° C.; read-out: Ki PKC theta
Sequence of PKC theta kinase (Q04759 whole entry): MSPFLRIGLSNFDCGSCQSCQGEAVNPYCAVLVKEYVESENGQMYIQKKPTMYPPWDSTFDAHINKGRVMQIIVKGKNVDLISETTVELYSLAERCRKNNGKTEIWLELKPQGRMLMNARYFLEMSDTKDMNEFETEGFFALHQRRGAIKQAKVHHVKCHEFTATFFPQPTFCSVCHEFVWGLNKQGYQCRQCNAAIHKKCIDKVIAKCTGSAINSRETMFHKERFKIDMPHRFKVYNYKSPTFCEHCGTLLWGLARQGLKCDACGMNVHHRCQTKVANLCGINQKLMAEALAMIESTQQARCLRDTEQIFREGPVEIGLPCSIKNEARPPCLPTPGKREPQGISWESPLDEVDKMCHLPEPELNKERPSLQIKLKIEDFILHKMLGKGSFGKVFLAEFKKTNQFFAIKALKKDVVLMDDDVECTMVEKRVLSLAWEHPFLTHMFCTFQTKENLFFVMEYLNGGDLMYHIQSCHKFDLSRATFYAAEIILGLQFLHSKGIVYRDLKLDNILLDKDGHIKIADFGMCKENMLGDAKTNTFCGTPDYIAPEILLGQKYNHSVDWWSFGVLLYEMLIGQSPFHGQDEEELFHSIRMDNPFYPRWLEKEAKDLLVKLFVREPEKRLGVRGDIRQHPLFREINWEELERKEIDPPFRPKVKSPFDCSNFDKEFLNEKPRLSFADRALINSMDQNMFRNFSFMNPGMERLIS
How it was run: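 Enzyme and compound equilibrated 10 min at 30 °C before reaction in HEPES pH 7.5 buffer with MgCl2, NaCl, EDTA and Brij. Activity tracked as NADH loss at 340 nm through a coupled system. Initial-rate data fitted by non-linear regression to give Ki.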

Sequence of PKC delta kinase (Q05655 whole entry): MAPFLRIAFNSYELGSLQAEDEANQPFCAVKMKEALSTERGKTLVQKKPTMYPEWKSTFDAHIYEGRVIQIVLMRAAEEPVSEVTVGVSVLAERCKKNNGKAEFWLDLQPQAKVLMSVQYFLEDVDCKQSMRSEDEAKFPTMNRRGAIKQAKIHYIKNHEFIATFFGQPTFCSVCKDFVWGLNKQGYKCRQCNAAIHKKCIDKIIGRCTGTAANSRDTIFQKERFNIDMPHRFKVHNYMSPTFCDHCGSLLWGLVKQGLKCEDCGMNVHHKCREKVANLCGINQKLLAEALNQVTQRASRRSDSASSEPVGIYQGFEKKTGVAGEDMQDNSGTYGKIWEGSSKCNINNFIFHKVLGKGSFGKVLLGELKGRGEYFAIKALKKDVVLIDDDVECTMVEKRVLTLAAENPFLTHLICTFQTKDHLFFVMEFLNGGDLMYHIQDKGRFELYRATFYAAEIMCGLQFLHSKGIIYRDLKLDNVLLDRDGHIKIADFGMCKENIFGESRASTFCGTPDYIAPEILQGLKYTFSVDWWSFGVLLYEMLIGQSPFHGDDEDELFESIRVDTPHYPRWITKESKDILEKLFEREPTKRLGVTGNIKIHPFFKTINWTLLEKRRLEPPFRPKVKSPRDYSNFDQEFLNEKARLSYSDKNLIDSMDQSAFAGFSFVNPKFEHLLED

Ki [1] [nM] | Ki [2] [nM] | Ki [3] [nM] | Compound
< 500 | > 1200 | < 500 | NCC1CCc2ccc(-c3ccnc4[nH]ncc34)cc21 (stereo not drawn) [Compound 308]
< 2800 | < 2800 | < 50 | CCC(N)c1cccc(-c2ccnc3[nH]nc(C(F)(F)F)c23)c1 (stereo not drawn) [Compound 309]
> 1200 | < 2800 | < 50 | Cc1cc(-c2ccnc3[nH]ncc23)cc(C2(CN)CNC(=O)O2)c1 (stereo not drawn) [Compound 310]
< 500 | < 500 | < 50 | N#CC1(c2cc(-c3ccnc4[nH]nc(C(F)(F)F)c34)cc(C(F)(F)CN)c2)CC1 [Compound 311]
< 2800 | < 500 | < 50 | N#CC1(c2cc(CCCO)cc(-c3ccnc4[nH]nc(C(F)(F)F)c34)c2)CC1 [Compound 312]
< 500 | < 2800 | < 50 | CCC(O)(c1cc(C)cc(-c2ccnc3[nH]nc(C(F)(F)F)c23)c1)C1CNC1 (stereo not drawn) [Compound 314]
> 1200 | > 1200 | < 2800 | CC(C)(O)C#Cc1cc(-c2ccnc3[nH]nc(C(F)(F)F)c23)cc(C2(C#N)CC2)c1 [Compound 315]
> 1200 | > 1200 | < 50 | CC(C)(O)CCc1cc(-c2ccnc3[nH]nc(C(F)(F)F)c23)cc(C2(C#N)CC2)c1 [Compound 316]
> 1200 | > 1200 | < 50 | CC(C)(N)CCc1cc(-c2ccnc3[nH]nc(C(F)(F)F)c23)cc(C2(C#N)CC2)c1 [Compound 317]
< 50 | < 500 | < 50 | CCC(C)(CO)c1cccc(-c2ccnc3[nH]nc(C(F)(F)F)c23)c1 (stereo not drawn) [Compound 318]
< 500 | < 500 | < 50 | C#CC1(c2cc(C)cc(-c3ccnc4[nH]ncc34)c2)CNC(=O)O1 (stereo not drawn) [Compound 319]
> 1200 | > 1200 | > 700 | N#CC(c1cccc(-c2ccnc3[nH]ncc23)c1)N1CCOCC1 (stereo not drawn) [Compound 320]
> 1200 | > 1200 | < 500 | N#CC(c1cccc(-c2ccnc3[nH]ncc23)c1)N1CCNCC1 (stereo not drawn) [Compound 321]
> 1200 | > 1200 | > 700 | OCc1cccc(-c2ccnc3[nH]ncc23)c1 [Compound 322]
< 2800 | < 500 | < 500 | Cc1cc(/C(=C/C#N)CN)cc(-c2ccnc3[nH]ncc23)c1 [Compound 323]
> 1200 | < 500 | < 50 | Cc1cc(-c2ccnc3[nH]nc(C(F)(F)F)c23)cc(C(C)(C)C#N)c1 [Compound 324]
> 1200 | < 500 | < 500 | C=CCC1(c2cc(C)cc(-c3ccnc4[nH]ncc34)c2)CNC(=O)O1 (stereo not drawn) [Compound 325]
> 1200 | > 1200 | < 500 | C=CCC1(c2cc(C)cc(-c3ccnc4[nH]ncc34)c2)CN(C)C(=O)O1 (stereo not drawn) [Compound 326]
> 1200 | < 2800 | < 500 | Cc1cc(-c2ccnc3[nH]ncc23)cc(C2(Cc3ccccc3)CNC(=O)O2)c1 (stereo not drawn) [Compound 327]
< 2800 | < 2800 | < 50 | N#CC1(c2cc(-c3ccnc4[nH]ncc34)cc(C(F)(F)C3CNC3)c2)CC1 [Compound 328]
> 1200 | > 1200 | < 50 | N#CC1(c2cc(CC(N)=O)cc(-c3ccnc4[nH]nc(C(F)(F)F)c34)c2)CC1 [Compound 329]
< 500 | < 500 | < 50 | N#CC1(c2cc(-c3ccnc4[nH]ncc34)cc(C(F)(F)CCN)c2)CC1 [Compound 330]
